Source: US20150175599A1, “FAAH Inhibitors” (Ironwood Pharmaceuticals, Inc., priority 2010, published 2015)

Target: T1, FAAH (Rattus norvegicus, UniProt P97612)
T1 construct: For the assay of FAAH activity in rat brain membrane (RBM) homogenates; tissue Charles River (animals); host or cells: rat whole brain, membrane fraction
T1 sequence (P97612 1-579): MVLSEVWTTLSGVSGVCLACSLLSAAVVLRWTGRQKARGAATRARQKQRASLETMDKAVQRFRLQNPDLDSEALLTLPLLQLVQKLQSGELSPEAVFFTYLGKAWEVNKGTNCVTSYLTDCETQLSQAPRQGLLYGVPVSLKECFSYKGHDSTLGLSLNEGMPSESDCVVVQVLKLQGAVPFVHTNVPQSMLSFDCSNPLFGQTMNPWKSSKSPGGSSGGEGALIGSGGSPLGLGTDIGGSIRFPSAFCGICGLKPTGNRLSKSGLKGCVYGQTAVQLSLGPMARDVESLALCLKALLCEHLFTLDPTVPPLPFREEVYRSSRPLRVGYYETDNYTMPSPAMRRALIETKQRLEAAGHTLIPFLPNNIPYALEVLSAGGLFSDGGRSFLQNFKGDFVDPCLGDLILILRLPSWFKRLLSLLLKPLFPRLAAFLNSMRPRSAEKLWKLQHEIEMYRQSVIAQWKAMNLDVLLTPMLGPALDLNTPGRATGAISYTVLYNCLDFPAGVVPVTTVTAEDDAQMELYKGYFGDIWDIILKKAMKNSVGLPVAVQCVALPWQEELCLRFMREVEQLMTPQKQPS
Experiment: FAAH inhibition, rat brain membrane homogenate assay
Assay type: biochemical
Details: rat brain homogenate; average activity; read-out: Rat Brain Extract FAAH IC50
Method: Adult rats (Charles River CD strain, female, 200 g) were anaesthetized with isofluorane and rapidly decapitated. Each brain was quickly removed and chilled in tubes (3 brains per tube) on ice. About 25 mL of “homogenization buffer” (20 mM HEPES buffer, pH 7.0, with 1 mM MgCl2) was added to 15 to 20 g of brain. The brains were homogenized on ice for 1 minute using an Omni GLH homogenizer (Omni International, Marietta, Ga.). The homogenates were then transferred to three centrifuge tubes and centrifuged at 36,500 g for 20 minutes at 4° C. The supernatant was discarded and each pellet was re-suspended in 25 mL homogenization buffer. The re-suspended material was again centrifuged (36,500 g, 20 minutes at 4° C.). Pellets were combined by re-suspension in 10 mL of homogenization buffer and incubated in a 37° C. water bath for 15 minutes. The tubes were then placed on ice for 5 minutes followed by centrifugation at 36,500 g for 20 minutes at 4° C. The supernatant was discarded and the membrane pellets were then re-suspended in 40 mL of “re-suspension buffer” (50 mM Tris-HCl buffer, pH 7.4, containing 1 mM EDTA and 3 mM MgCl2). A Bradford Protein assay was performed to determine protein concentration. The protein was aliquotted into screw cap Cryo tubes each containing −400 μL, flash-frozen in liquid nitrogen and stored at −80° C. until used for the assay. A similar protocol was used to obtain brain membrane homogenates from mice
FAAH activity was assayed in the respective homogenates described herein (Rat brain, Mouse brain or Human brain) with certain of the exemplary compounds described above using a modification of the method of Omeir et al. (1995 Life Sci. 56:1999) and Fowler et al. (1997 J. Pharmacol. Exp. Ther. 283:729). For the assay of FAAH activity in rat brain membrane (RBM) homogenates, RBM homogenates (7 μg protein in 20 μL final volume of 10 mM Tris pH 6.5) were mixed with 180 μL of a mixture of the following: […] unlabelled anandamide (AEA), 0.03 Ci radio labeled anandamide [ethanolamine 1-^3H](40-60 Ci/mmol; product number ART-626, American Radiolabelled Chemicals, St. Louis, Mo.), 1 mg/mL Bovine Serum Albumin (fatty acid-free BSA, electrophoresis grade, Sigma, St. Louis, Mo.), 10 mM Tris-HCl (pH 6.5), and 1 mM EDTA in the presence and absence of test compounds (vehicle was DMSO at a final concentration of 1%) and incubated for 10 minutes at 37° C. Samples were placed on ice to terminate the reactions.
The ^3H-ethanolamine product and un-reacted ^3H-anandamide substrate were then separated by either: (1) using chloroform/methanol extraction or (2) passing the reaction mixture through a glass fiber filter containing activated charcoal. Samples were extracted with chloroform/methanol by adding 0.4 mL of chloroform/methanol (1:1 v/v), vigorously mixing the samples, and separating the aqueous and organic phases by centrifugation. Radioactivity (corresponding to FAAH-catalyzed breakdown of ^3H-anandamide) found in aliquots (0.2 mL) of the aqueous phase was determined by liquid scintillation counting with quench correction. IC50 values were determined as described by Jonsson et al. (2001 Br. J Pharmacol. 133:1263). Alternatively, reactions were purified using a modification of the solid-phase extraction method described by Wilson et al (2003 Anal. Biochem. 318: 270). This method was modified as follows: after reactions were incubated at 37° C. for 10 minutes and chilled on ice, the reaction mixtures were acidified by adding 10 μL of sodium phosphate solution[0.5M (pH 2.0)]. Next, 90 μL aliquots of the acidified reaction mixtures were applied to activated charcoal (that had been previously washed with methanol as described by Wilson et al. (supra)) containing 80 μL of water on top of a glass fiber filter, centrifuged, and the radioactivity in the eluate was counted as described previously by Wilson et al. (supra). […]

## CNc1ccc2c(c1)c(C(=O)C(=O)Nc1ccnc(OC)c1)c(C)n2Cc1ccc(Cl)cc1 [Compound 9, 2-(1-(4-chlorobenzyl)-2-methyl-5-(methylamino)-1H-indol-3-yl)-N-(2-methoxypyridin-4-yl)-2-oxoacetamide]
  IC50: < 100 nM

## Cc1c(C(=O)C(=O)Nc2cccc(Cl)c2)c2cc(O)ccc2n1Cc1ccc(Cl)cc1 [Compound 71, 2-(1-(4-chlorobenzyl)-5-hydroxy-2-methyl-1H-indol-3-yl)-N-(3-chlorophenyl)-2-oxoacetamide]
  IC50: 100 to 1000 nM

## COc1cc(NC(=O)C(=O)c2c(C)n(Cc3ccc(Cl)cc3)c3cnccc23)ccn1 [Compound 35, 2-(1-(4-chlorobenzyl)-2-methyl-1H-pyrrolo[2,3-c]pyridin-3-yl)-N-(2-methoxypyridin-4-yl)-2-oxoacetamide]
  IC50: 100 to 1000 nM

## COc1cc(NC(=O)C(=O)c2c(C)n(Cc3ccc(Cl)cc3)c3ccc(O)cc23)ccn1 [Compound 2, 2-(1-(4-chlorobenzyl)-5-hydroxy-2-methyl-1H-indol-3-yl)-N-(2-methoxypyridin-4-yl)-2-oxoacetamide]
  IC50: < 100 nM

## COc1cc(NC(=O)C(=O)c2c(C)n(Cc3ncc(Cl)cc3F)c3cc(F)c(OC)cc23)ccn1 [Compound 99, 2-(1-((5-chloro-3-fluoropyridin-2-yl)methyl)-6-fluoro-5-methoxy-2-methyl-1H-indol-3-yl)-N-(2-methoxypyridin-4-yl)-2-oxoacetamide]
  IC50: < 100 nM

## COc1cc(NC(=O)C(=O)c2c(C)n(Cc3ccc(Cl)cn3)c3ccc(N(C)C)cc23)ccn1 [Compound 66, 2-(1-((5-chloropyridin-2-yl)methyl)-5-(dimethylamino)-2-methyl-1H-indol-3-yl)-N-(2-methoxypyridin-4-yl)-2-oxoacetamide]
  IC50: < 100 nM

## COc1cc(NC(=O)C(=O)c2c(C)n(Cc3ccc(F)cc3F)c3cc(F)c(OC)cc23)ccn1 [Compound 14, 2-(1-(2,4-difluorobenzyl)-6-fluoro-5-methoxy-2-methyl-1H-indol-3-yl)-N-(2-methoxypyridin-4-yl)-2-oxoacetamide]
  IC50: < 100 nM

## COc1cc(NC(=O)C(=O)c2c(C)n(Cc3ccc(Cl)cn3)c3cc(F)c(OC)cc23)ccn1 [Compound 64, 2-(1-((5-chloropyridin-2-yl)methyl)-6-fluoro-5-methoxy-2-methyl-1H-indol-3-yl)-N-(2-methoxypyridin-4-yl)-2-oxoacetamide]
  IC50: < 100 nM

## COc1cc(NC(=O)C(=O)c2c(C)n(Cc3ccc(Cl)cc3)c3ncc(C)cc23)ccn1 [Compound 76, 2-(1-(4-chlorobenzyl)-2,5-dimethyl-1H-pyrrolo[2,3-b]pyridin-3-yl)-N-(2-methoxypyridin-4-yl)-2-oxoacetamide]
  IC50: < 100 nM

## COc1cc(NC(=O)C(=O)c2c(C)n(Cc3ccc(Cl)cc3)c3ccc(CO)cc23)ccn1 [Compound 8, 2-(1-(4-chlorobenzyl)-5-(hydroxymethyl)-2-methyl-1H-indol-3-yl)-N-(2-methoxypyridin-4-yl)-2-oxoacetamide]
  IC50: < 100 nM

## COc1cnc2c(c1)c(C(=O)C(=O)Nc1ccnc(OC)c1)c(C)n2Cc1ncc(Cl)cc1F [Compound 34, 2-(1-((5-chloro-3-fluoropyridin-2-yl)methyl)-5-methoxy-2-methyl-1H-pyrrolo[2,3-b]pyridin-3-yl)-N-(2-methoxypyridin-4-yl)-2-oxoacetamide]
  IC50: < 100 nM

## CCN(CC)c1ccc2c(c1)c(C(=O)C(=O)Nc1ccnc(OC)c1)c(C)n2Cc1ccc(Cl)cc1 [Compound 24, 2-(1-(4-chlorobenzyl)-5-(diethylamino)-2-methyl-1H-indol-3-yl)-N-(2-methoxypyridin-4-yl)-2-oxoacetamide]
  IC50: 100 to 1000 nM

## COc1cc(NC(=O)C(=O)c2c(C)n(Cc3ccc(Cl)cc3)c3ccncc23)ccn1 [Compound 37, 2-(1-(4-chlorobenzyl)-2-methyl-1H-pyrrolo[3,2-c]pyridin-3-yl)-N-(2-methoxypyridin-4-yl)-2-oxoacetamide]
  IC50: < 100 nM

## COc1cc(NC(=O)C(=O)c2c(C)n(Cc3ccc(Cl)cc3)c3ccc(OC(F)(F)F)cc23)ccn1 [Compound 23, 2-(1-(4-chlorobenzyl)-2-methyl-5-(trifluoromethoxy)-1H-indol-3-yl)-N-(2-methoxypyridin-4-yl)-2-oxoacetamide]
  IC50: < 100 nM

## COc1cc(NC(=O)C(=O)c2c(C)n(Cc3ccc(Cl)cc3)c3ccc(OC)c(Cl)c23)ccn1 [Compound 58, 2-(4-chloro-1-(4-chlorobenzyl)-5-methoxy-2-methyl-1H-indol-3-yl)-N-(2-methoxypyridin-4-yl)-2-oxoacetamide]
  IC50: 100 to 1000 nM

## COc1cc(NC(=O)C(=O)c2c(C)n(Cc3ccc(Cl)cc3)c3ccc(COC(C)=O)cc23)ccn1 [Compound 10, (1-(4-chlorobenzyl)-3-(2-(2-methoxypyridin-4-ylamino)-2-oxoacetyl)-2-methyl-1H-indol-5-yl)methyl acetate]
  IC50: < 100 nM

## COc1cc(NC(=O)C(=O)c2c(C)n(Cc3ccc(Cl)cc3)c3ccc(Br)cc23)ccn1 [Compound 18, 2-(5-bromo-1-(4-chlorobenzyl)-2-methyl-1H-indol-3-yl)-N-(2-methoxypyridin-4-yl)-2-oxoacetamide]
  IC50: < 100 nM

## COc1cc(NC(=O)C(=O)c2c(C)n(Cc3ccc(Cl)cn3)c3ccc(Cl)cc23)ccn1 [Compound 63, 2-(5-chloro-1-((5-chloropyridin-2-yl)methyl)-2-methyl-1H-indol-3-yl)-N-(2-methoxypyridin-4-yl)-2-oxoacetamide]
  IC50: < 100 nM

## COc1ccc(Cn2c(C)c(C(=O)C(=O)Nc3ccnc(OC)c3)c3cc(OC)ccc32)nc1 [Compound 43, 2-(5-methoxy-1-((5-methoxypyridin-2-yl)methyl)-2-methyl-1H-indol-3-yl)-N-(2-methoxypyridin-4-yl)-2-oxoacetamide]
  IC50: < 100 nM

## COc1cc(NC(=O)C(=O)c2c(C)n(Cc3ccc(Cl)cc3)c3ccc(C(C)=O)cc23)ccn1 [Compound 5, 2-(5-acetyl-1-(4-chlorobenzyl)-2-methyl-1H-indol-3-yl)-N-(2-methoxypyridin-4-yl)-2-oxoacetamide]
  IC50: < 100 nM

## COc1ccc(Cn2c(C)c(C(=O)C(=O)Nc3ccnc(OC)c3)c3cc(C)ccc32)nc1 [Compound 69, 2-(1-((5-methoxypyridin-2-yl)methyl)-2,5-dimethyl-1H-indol-3-yl)-N-(2-methoxypyridin-4-yl)-2-oxoacetamide]
  IC50: < 100 nM

## COc1ccc2c(c1)c(C(=O)C(=O)Nc1ccnc(OC)n1)c(C)n2Cc1ccc(Cl)cc1 [Compound 46, 2-(1-(4-chlorobenzyl)-5-methoxy-2-methyl-1H-indol-3-yl)-N-(2-methoxypyrimidin-4-yl)-2-oxoacetamide]
  IC50: < 100 nM
